# Values quoted from earlier work, collected in patent publication US9089636B2, “Methods and devices for delivering GLP-1 and uses thereof” (VALERITAS, INC., priority 2004, dated 2015).
# Read-outs that look alike come from different tables or passages of the source. No end group written: not given here.
# Assays:
# [1] = tested on: rat PC12 pheochromocytoma cell line
# [2] = target: dipeptidylaminopeptidase IV (DPP-IV) (Homo sapiens, UniProt P27487)
# [3] = in vivo
# cloned GLP-1 receptor = cloned GLP-1 receptor (Homo sapiens, UniProt P43220)
# Chain of cloned GLP-1 receptor (P43220 24-463): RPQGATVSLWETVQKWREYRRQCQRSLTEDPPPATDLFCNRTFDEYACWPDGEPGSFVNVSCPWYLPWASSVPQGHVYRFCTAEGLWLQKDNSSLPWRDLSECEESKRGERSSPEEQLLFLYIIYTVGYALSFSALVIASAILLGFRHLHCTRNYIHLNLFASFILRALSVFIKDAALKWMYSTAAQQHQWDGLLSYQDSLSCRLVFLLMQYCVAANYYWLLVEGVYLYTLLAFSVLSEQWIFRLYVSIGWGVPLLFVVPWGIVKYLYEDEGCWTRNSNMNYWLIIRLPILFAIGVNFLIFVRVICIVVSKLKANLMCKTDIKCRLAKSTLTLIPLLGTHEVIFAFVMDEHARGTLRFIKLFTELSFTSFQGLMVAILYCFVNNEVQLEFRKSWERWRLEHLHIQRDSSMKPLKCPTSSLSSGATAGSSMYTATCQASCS
# rats [4] = settings: for blood pressure and heart rate: centrally and peripherally administered
# hippocampal neurons = settings: systemic administration
# rats [5] = settings: for effect on GLP-1-induced fecal output: rat, in vivo
# [6] = tested on: Multiple islet cell lines
# human islets = settings: 5 days
# Zucker diabetic rats = settings: 2 day infusion
# [7] = tested on: BHK fibroblasts expressing a transfected GLP-1 receptor
# [8] = tested on: cultured fetal rat hippocampal neurons; settings: for extent of glutamate-induced cell death: short term cultures
# fetal pig islet clusters = settings: 75-90 day gestational age
# lean mice = settings: subcutaneous, 2 days
# young and old rats = settings: infusion for 5 days
# neonatal GK rat = settings: 5 days
# rats [9] = settings: ICV
# human subjects [10] = settings: physiologically relevant concentrations
# [11] = tested on: subjects with type 2 diabetes; settings: following a liquid test meal
# [12] = tested on: human subjects with LV dysfunction and acute MI
# salt-sensitive rats = settings: 14 day treatment, high salt diet
# human volunteers = settings: 60 minute infusion, 30 pmol/kg/h
# cultured myotubes = settings: 0.1-1 pM
# CNS = settings: in vivo
# human subjects [13] = settings: infusion
# db/db mice [14] = settings: daily for 14 days
# purified rat b cells = settings: combination of cytotoxic cytokines
# [15] = tested on: human islet-like cell clusters; settings: 4 days in vitro
# rat pancreatectomy model = settings: in vivo
# db/db mice [16] = tested on: db/db mice
# blood brain barrier = settings: CD1 mice
# [17] = after 72-hour infusion at 1.5 pmol/kg per minute
# [18] = after reperfusion, before GLP-1 infusion
# Chain of dipeptidylaminopeptidase IV (DPP-IV) (P27487 whole entry, species assumed): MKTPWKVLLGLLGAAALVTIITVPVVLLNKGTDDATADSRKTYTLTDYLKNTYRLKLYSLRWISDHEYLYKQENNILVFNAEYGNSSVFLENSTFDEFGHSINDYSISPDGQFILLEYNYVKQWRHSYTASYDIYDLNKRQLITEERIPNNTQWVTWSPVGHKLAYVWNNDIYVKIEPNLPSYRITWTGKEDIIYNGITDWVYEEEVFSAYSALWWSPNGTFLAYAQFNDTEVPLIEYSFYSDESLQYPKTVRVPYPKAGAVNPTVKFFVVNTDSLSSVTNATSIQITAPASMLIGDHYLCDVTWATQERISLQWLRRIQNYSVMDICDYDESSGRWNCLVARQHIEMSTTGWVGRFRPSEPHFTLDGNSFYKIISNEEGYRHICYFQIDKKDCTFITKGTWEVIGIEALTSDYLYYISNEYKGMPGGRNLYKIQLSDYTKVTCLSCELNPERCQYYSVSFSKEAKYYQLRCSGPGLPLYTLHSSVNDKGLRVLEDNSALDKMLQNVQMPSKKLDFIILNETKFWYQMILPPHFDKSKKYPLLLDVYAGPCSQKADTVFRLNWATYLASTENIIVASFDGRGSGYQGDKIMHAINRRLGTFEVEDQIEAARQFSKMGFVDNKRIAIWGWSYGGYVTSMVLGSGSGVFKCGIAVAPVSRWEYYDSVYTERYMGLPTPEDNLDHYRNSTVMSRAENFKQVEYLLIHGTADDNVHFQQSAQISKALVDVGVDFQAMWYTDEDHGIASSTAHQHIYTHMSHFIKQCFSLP
molecule,measurement,setting,value
COc1cccc(-c2cc(=O)c3ccccc3o2)c1N [PD98059],effect on the differentiation actions of GLP-1,[1],abrogated
Val8-GLP-1(7-37)OH,DPP-IV degradation,[2],resistant
same,optimum plasma levels,[3],30-200 picomoles/liter
"GLP-1 (9-36)amide (EGTFTSDVSSYLEGQAAKEFIAWLVKGR-NH2; UniProt P01275 100-127, looked up, fragment) [GLP-1 (9-36) amide, truncated fragment, primary metabolite of GLP-1 produced by DPP-IV]",effect on the action of GLP-1 7-36 amide,cloned GLP-1 receptor,antagonized
CN1[C@@H]2CC[C@H]1C[C@@H](OC(=O)C(CO)c1ccccc1)C2 (some centres unmarked) [atropine],effect on the stimulatory effect of GLP-1 on blood pressure,rats [4]; normal rats,prevented
O=S(=O)(NCCNC/C=C/c1ccc(Br)cc1)c1cccc2cnccc12 [H-89],effect on the differentiation actions of GLP-1,[1],only modest effects
"Nc1ncnc2c1ncn2[C@@H]1O[C@@H]2COP(O)(=S)O[C@H]2[C@H]1O (some centres unmarked) [Rp-cAMP, reference compound]",effect on the anti-apoptotic effects of GLP-1,Min6 mouse islet cells,partially blocked
[Ser(2)]exendin(1-9),kainate-induced apoptosis of hippocampal neurons,hippocampal neurons,prevents
astressin,effect on GLP-1-induced fecal output,rats [5],blocked
Glucagon-like peptide-1 [GLP-1],cephalic-induced antral motility,pigs,strongly inhibited
same,Gene or Protein activated by GLP-1,INS-1 cells; Akt and IRS proteins,Akt and IRS proteins
same,Gene or Protein activated by GLP-1,INS-1 cells; Calcineurin and NFAT,Calcineurin and NFAT
same,Gene or Protein activated by GLP-1,INS-1 cells; Glucokinase,Glucokinase
same,Gene or Protein activated by GLP-1,INS-1 cells; Immediate early genes,Immediate early genes
same,Gene or Protein activated by GLP-1,INS-1 cells; Kir 6.2 RNA,Kir 6.2 RNA
same,Gene or Protein activated by GLP-1,RIN1046-38 cells; GLUT-1 RNA,GLUT-1 RNA
same,Gene or Protein activated by GLP-1,RIN1046-38 cells; Hexokinase I RNA,Hexokinase I RNA
same,Gene or Protein activated by GLP-1,RIN1046-38 cells; SNAP-25 phosphorylation,SNAP-25 phosphorylation
same,Gene or Protein activated by GLP-1,Multiple cell models,Insulin RNA
same,Gene or Protein activated by GLP-1,[6],Pdx-1 RNA and protein
same,cell death,human islets,decreased
same,glucose-stimulated insulin secretion,human islets,improved
same,islet size and β cell mass,Zucker diabetic rats,increased
same,percentage of apoptotic β cells,Zucker diabetic rats,significantly reduced
same,cell survival,[7],increased
same,extent of hydrogen peroxide-induced apoptosis,Min6 mouse islet cells; in vitro,reduced
same,protection against glutamate-induced apoptosis,[8],completely protect
same,extent of glutamate-induced cell death,[8],significantly reduced
same,calpain activity,calpain,decreased
same,differentiation to an endocrine phenotype,AR42J cell line,promotes
same,glucose-dependent insulin secretion,fetal pig islet clusters,promoted
same,insulin expression in subsets of cells,human NIP cells,induced
same,islet labeling index,lean mice,increased
same,β cell mass,young and old rats,increased
same,pancreatic insulin content and total beta-cell mass,neonatal GK rat,enhanced
same,food intake,rats [9],dose-dependently inhibits
same,blood pressure and heart rate,rats [4],dose-dependently increased
same,fecal output,rats [5]; ICV,increase
same,peak plasma level of GLP-1,continuous 5 day subcutaneous infusion,88.7 pM
same,peak plasma level of GLP-1,subcutaneous injection 30 minutes before meals,269.4 pM
same,pentagastrin-stimulated gastric acid secretion,human subjects [10],inhibited
same,gastric emptying,[11],inhibits
same,LVEF,[12]; [17],39+2%
same,global wall motion score indexes,[12]; [17],1.63 ± 0.09
same,regional wall motion score indexes,[12]; [17],2.02 ± 0.11
same,LVEF,[12]; [18],29+2%
same,global wall motion score indexes,[12]; [18],1.94 ± 0.11
same,regional wall motion score indexes,[12]; [18],2.53 ± 0.08
same,plasma glucose and free fatty acids,"[12]; human, in vivo",significant decrease
same,contraction amplitude,rat cardiac myocytes,decrease
same,intracellular cAMP,rat cardiac myocytes,increased
same,development of hypertension,salt-sensitive rats,reduced
same,Rd (glucose disposal),human volunteers,no significant change
same,decrease in Ra (endogenous glucose production),human volunteers,17%
same,plasma glucose,human volunteers,decreased
same,glycogen synthesis,muscle strips,stimulated
same,glucose incorporation into glycogen,cultured myotubes,stimulated
"[Ser8]GLP-1 (HSEGTFTSDVSSYLEGQAAKEFIAWLVKGRG; also: radiolabel, position not given here; UniProt P01275 98-128, looked up, variant A8S)",uptake into the CNS,CNS,not saturable
exendin (9-39),food intake,rats [9],increased
same,effect on GLP-1-induced fecal output,rats [5],blocked
same,effect on the insulinotropic and glucagonostatic effects of exogenous GLP-1,human subjects [13],blocked
exendin-4,numbers of Tunel+ apoptotic β cells,db/db mice [14],reduced
same,progression to more frank diabetes,db/db mice [14],prevented
same,β cell mass,db/db mice [14],increased
same,β cell apoptosis induced by streptozotocin (STZ),mice,reduced
same,extent of apoptotic cell death,purified rat b cells,directly reduced
same,cell survival,[7],increased
same,protection against glutamate-induced apoptosis,[8],completely protect
same,extent of glutamate-induced cell death,[8],significantly reduced
same,differentiation to an endocrine phenotype,AR42J cell line,promotes
same,number of cells exhibiting immunopositivity for insulin or glucagon,Capan-1,significant increase
same,insulin expression in subsets of cells,human NIP cells,induced
same,Pdx-1 expression,[15],enhance
same,insulin expression,[15],not
same,glucose intolerance following partial pancreatectomy,rat pancreatectomy model,attenuates
same,islet neogenesis and β cell proliferation,rat pancreatectomy model,increases
same,β cell proliferation,db/db mice [16],increased
same,β cell proliferation,ob/ob mice,not
same,pancreatic insulin content and total beta-cell mass,neonatal GK rat,enhanced
same,crossing of the blood brain barrier,blood brain barrier,readily crosses
same,blood pressure and heart rate,rats [4],dose-dependently increased
CNC1(C)C2CCC(C2)C1(C)C (centres unmarked) [mecamylamine],effect on the GLP-1-dependent increase in heart rate,rats [4]; normal rats,blocked
same,effect on the stimulatory effect of GLP-1 on blood pressure,rats [4]; normal rats,prevented
